Test results published in US12227511B2, “Bicyclic compounds as kinase modulators, methods and uses thereof” (Agency for Science, Technology and Research, priority 2018, dated 2025).

Legend:
[1] = tested on: hepatocellular carcinoma (HCC); settings: clinical; cited from earlier work
[2] = tested on: HCCLM3 cells; experiment: GI50 in HCCLM3 cells, cell viability by MTS assay; format: cell-based; settings: Homo sapiens, 72 hours incubation, triplicates, read-out: HCCLM3 activity range (GI50)
Procedure: To investigate the effects of compounds on hepatocellular carcinoma (HCC) cell viability, HCCLM3 cells (HCC cells with high metastatic potential) were incubated with increasing concentrations of test compounds for 72 hours. Cell viability was evaluated at the end of incubation period by MTS assay. […] All samples were evaluated in triplicates.
As set forth in Table 1 below, GI50 values are defined as follows: GI50≤10 μM (+++); GI50>10 μM and ≤20 μM (++); GI50>20 μM (+).

[3] = tested on: hepatocellular carcinoma (HCC); settings: HCC patients taking Stivarga (Regorafenib); cited from earlier work
[4] = tested on: hepatocellular carcinoma (HCC); settings: HCC patients, cited from earlier work

GI50 [2]	Structure (SMILES)	further results
–	COc1cc2nccc(Oc3ccc(NC(=O)C4(C(=O)Nc5ccc(F)cc5)CC4)cc3)c2cc1OC [Cabozantinib]	incidence of adverse events (AEs) compared to Regorafenib [1]: higher incidence of adverse events
10 to 20 µM	COCC12CC(NC(=O)C3(C(=O)Nc4ccc(Oc5ccnc6cc(OC)c(OC)cc56)cc4)CC3)(C1)C2 [Compound 30, N-(4-((6,7-dimethoxyquinolin-4-yl)oxy)phenyl)-N-(3-(methoxymethyl)bicyclo[1.1.1]pentan-1-yl)cyclopropane-1,1-dicarboxamide]	–
≤ 10 µM	COC(=O)C12CC(NC(=O)C3(C(=O)Nc4ccc(Oc5ccnc6cc(OC)c(OC)cc56)cc4)CC3)(C1)C2 [Compound 31, methyl 3-(1-((4-((6,7-dimethoxyquinolin-4-yl)oxy)phenyl)carbamoyl)cyclopropane-1-carboxamido)bicyclo[1.1.1]pentane-1-carboxylate]	–
≤ 10 µM	COc1cc2nccc(Oc3ccc(NC(=O)C4(C(=O)NC56CC(CO)(C5)C6)CC4)cc3)c2cc1OC [Compound 32, N-(4-((6,7-dimethoxyquinolin-4-yl)oxy)phenyl)-N-(3-(hydroxymethyl)bicyclo[1.1.1]pentan-1-yl)cyclopropane-1,1-dicarboxamide]	–
10 to 20 µM	COc1cc2nccc(Oc3ccc(NC(=O)C4(C(=O)NC56CC(C#N)(C5)C6)CC4)cc3)c2cc1OC [Compound 33, N-(3-cyanobicyclo[1.1.1]pentan-1-yl)-N-(4-((6,7-dimethoxyquinolin-4-yl)oxy)phenyl)cyclopropane-1,1-dicarboxamide]	–
> 20 µM	COc1cc2nccc(Oc3ccc(NC(=O)C45CC(C(=O)NC67CCC(CC6)C7)(C4)C5)cc3)c2cc1OC [Compound 34, N1-((1s,4s)-bicyclo[2.2.1]heptan-1-yl)-N3-(4-((6,7-dimethoxyquinolin-4 yl)oxy)phenyl)bicyclo[1.1.1]pentane-1,3-dicarboxamide]	–
> 20 µM	COc1cc2nccc(Oc3ccc(NC(=O)C45CC(C(=O)N6CC7CC7C6)(C4)C5)cc3)c2cc1OC (centres unmarked) [Compound 35, 3-(3-azabicyclo[3.1.0]hexane-3-carbonyl)-N-(4-((6,7-dimethoxyquinolin-4-yl)oxy)phenyl)bicyclo[1.1.1]pentane-1-carboxamide]	–
> 20 µM	COc1cc2nccc(Oc3ccc(NC(=O)C45CC(C(=O)NC6CC6)(C4)C5)cc3)c2cc1OC [Compound 36, N1-cyclopropyl-N3-(4-((6,7-dimethoxyquinolin-4-yl)oxy)phenyl)bicyclo[1.1.1]pentane-1,3-dicarboxamide]	–
–	CNC(=O)c1cc(Oc2ccc(NC(=O)Nc3ccc(Cl)c(C(F)(F)F)c3)c(F)c2)ccn1 [Regorafenib]	median overall survival [3]: about 10.6 months
–	CNC(=O)c1cc(Oc2ccc(NC(=O)Nc3ccc(Cl)c(C(F)(F)F)c3)cc2)ccn1 [Sorafenib]	increase of survival rate compared to a placebo ([4]; Sorafenib vs placebo): 2.8 months; median survival rate ([4]; Sorafenib): about 10.7 months
